Results taken from the supplement of paper PMC11451515.

Key:
Assay in all cases: AUC of viability dose-response curve (% viability x log10 dose units); higher = less sensitive
Settings in all cases: 48 h
[1] = tested on: NOMO1
Procedure, shortened: (§1)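 Over 48 h at 37°C, leukemia cells in 1536-well plates (500 or 1000 cells/well), adapted to each medium, received library compounds in DMSO at 11 threefold doses from 47 μM to 0.79 nM. CellTiter-Glo One luminescence, normalised per plate to DMSO and cell-free wells, was fitted by a four-parameter log-logistic function of log10 dose. The area under the curve was then integrated by trapezoidal rule, after scaling curves above full viability and removing those that failed quality control.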

[2] = tested on: P12-Ichikawa
Procedure, shortened: as §1

[3] = tested on: SEM cells
Procedure, shortened: as §1

[4] = RPMI 5 mM glucose + 10% dialyzed FBS

Row | SMILES | AUC of viability dose-response curve ([1]; HPLM + 10% dialyzed FBS) | AUC of viability dose-response curve ([1]; RPMI 5 mM glucose + 10% FBS) | AUC of viability dose-response curve [1, 4] | AUC of viability dose-response curve ([2]; HPLM + 10% dialyzed FBS) | AUC of viability dose-response curve ([2]; RPMI 5 mM glucose + 10% FBS) | AUC of viability dose-response curve [2, 4] | AUC of viability dose-response curve ([3]; HPLM + 10% dialyzed FBS) | AUC of viability dose-response curve ([3]; RPMI 5 mM glucose + 10% FBS) | AUC of viability dose-response curve [3, 4]
1 | COc1ccccc1N1CCN(CC(O)COc2cccc3ccccc23)CC1 (configuration not stated) | 450 | 448 | 431 | 467 | 439 | 441 | 473 | 455 | 449
2 | Cc1nc(C(=O)NCC(=O)O)c(O)c2ccc(Oc3ccccc3)cc12 | 462 | 442 | 466 | 454 | 455 | 466 | 459 | 454 | 470
3 | O=C1N\N=C(\C[C@@H]2CCN(C2)C(=O)C3CC3)N1C4=CC=C(C=C4)C5=CC=C6OC=CC6=C5 | 448 | 397 | 394 | 400 | 376 | 405 |  |  | 
4 | COc1cc([C@@H]2c3cc4c(cc3[C@@H](O[C@@H]3O[C@@H]5CO[C@@H](C)O[C@H]5[C@H](O)[C@H]3O)[C@H]3COC(=O)[C@H]23)OCO4)cc(OC)c1O | 345 | 314 | 311 | 268 | 239 | 244 |  |  | 
5 | COC(=O)[C@@H]1CC2=CC(=O)CC[C@]2(C)[C@@]23O[C@@H]2C[C@@]2(C)[C@@H](CC[C@@]24CCC(=O)O4)[C@H]13 | 456 | 467 | 450 | 458 | 446 | 451 | 444 | 456 | 421
6 | CN1C(=O)C(=C/2N(C(=O)N(C3CC3)C(=O)C2=C1/NC4=CC=C(I)C=C4F)C5=CC=CC(=C5)NC(C)=O)\C | 249 | 255 | 255 | 354 | 340 | 355 | 325 | 323 | 318
7 | NC(=O)c1ncn([C@@H]2O[C@H](CO)[C@@H](O)[C@H]2O)c1N | 468 | 469 | 465 | 467 | 447 | 455 | 443 | 372 | 458
8 | CC1(C)CCC(=C(\C1)C2=CC=C(Cl)C=C2)/CN3CCN(CC3)C4=CC(=C(C=C4)C(=O)N[S+]([O-])(=O)C5=CC=C(NCC6CCOCC6)C(=C5)[N+]([O-])=O)OC7=CN=C8[NH]C=CC8=C7 | 355 | 347 | 290 | 436 | 436 | 449 | 186 | 198 | 175
9 | CC/C(=C(\c1ccccc1)c1ccc(OCCN(C)C)cc1)c1ccccc1 | 457 | 458 | 450 | 472 | 461 | 465 | 434 | 425 | 435
10 | CCCCCCCN(CC)CCCC(O)c1ccc(NS(C)(=O)=O)cc1.CCCCCCCN(CC)CCCC(O)c1ccc(NS(C)(=O)=O)cc1.O=C(O)/C=C/C(=O)O (configuration not stated) | 471 | 463 | 464 | 460 | 457 | 461 | 446 | 421 | 443
11 | O=C1CCc2cc(OCCCCc3nnnn3C3CCCCC3)ccc2N1 | 411 | 433 | 451 | 452 | 436 | 431 | 439 | 438 | 428
12 | CO[C@H]1C[C@H]2OC[C@@]2(OC(C)=O)[C@H]3[C@H](OC(=O)C4=CC=CC=C4)[C@]5(O)C[C@H](OC(=O)[C@H](O)[C@@H](NC(=O)OC(C)(C)C)C6=CC=CC=C6)/C(=C(/[C@@H](OC)C(=O)[C@]13C)C5(C)C)C | 125 | 135 | 143 | 135 | 142 | 171 |  |  | 
13 | CN1C(=O)\C(=C/C2=C1N=C(NC3CCOCC3)N=C2)OC4=C(F)C=C(F)C=C4 | 420 | 406 | 413 | 428 | 429 | 420 | 439 | 463 | 430
14 | CNC(=O)c1ccccc1Sc1ccc2c(/C=C/c3ccccn3)n[nH]c2c1 | 425 | 430 | 418 | 390 | 386 | 409 | 407 | 389 | 395
15 | NC(=O)Cc1cccc(C(=O)c2ccccc2)c1N | 461 | 435 | 436 | 468 | 456 | 455 | 433 | 404 | 428
16 | CNC(=O)c1cc(Oc2ccc(NC(=O)Nc3ccc(Cl)c(C(F)(F)F)c3)c(F)c2)ccn1 | 444 | 438 | 440 | 422 | 422 | 427 | 296 | 314 | 275
17 | CCN(CCO)CCCC(C)Nc1ccnc2cc(Cl)ccc12 (configuration not stated) | 417 | 429 | 459 | 392 | 400 | 384 |  |  | 
18 | COC1=CC=CC(=C1/C2=N/CC3=C(N=C(NC4=CC(=C(C=C4)C(O)=O)OC)N=C3)C5=CC=C(Cl)C=C25)F | 312 | 291 | 297 | 210 | 217 | 230 | 241 | 221 | 216
19 | N[C@@H](Cc1cc(I)c(Oc2cc(I)c(O)c(I)c2)c(I)c1)C(=O)O | 456 | 473 | 429 | 445 | 460 | 468 | 463 | 454 | 438
20 | CCC1=C2CN3C(=O)\C4=C(/C=C3/C2=NC5=CC=C(O)C=C15)[C@@](O)(CC)C(=O)OC4 | 226 | 211 | 218 | 109 | 102 | 105 | 158 | 137 | 140
21 | CN1CCN(CC1)C/2=N/C3=CC=CC=C3NC4=C2C=C(C)S4 |  |  |  | 465 | 458 | 458 | 467 | 454 | 473
22 | CC=CC1=C(C(=O)O)N2C(=O)[C@@H](NC(=O)[C@H](N)c3ccc(O)cc3)[C@H]2SC1.O | 370 | 342 | 376 | 415 | 416 | 429 | 395 | 460 | 447
23 | CCOC(=O)c1c(/C(C#N)=C\N)c2ccc(Cl)c(Cl)c2n1C | 442 | 395 | 407 | 432 | 412 | 429 | 412 | 427 | 408
24 | Cc1n[nH]c(C)c1Cc1sc2c(c1C(=O)N1C[C@H](O)CO1)c(=O)n(C)c(=O)n2CC(C)C | 456 | 476 | 468 | 416 | 410 | 417 | 366 | 408 | 444

Row | SMILES | AUC of viability dose-response curve ([1]; HPLM + 10% dialyzed FBS) | AUC of viability dose-response curve ([1]; RPMI 5 mM glucose + 10% FBS) | AUC of viability dose-response curve [1, 4] | AUC of viability dose-response curve ([2]; HPLM + 10% dialyzed FBS) | AUC of viability dose-response curve ([2]; RPMI 5 mM glucose + 10% FBS) | AUC of viability dose-response curve [2, 4] | AUC of viability dose-response curve ([3]; HPLM + 10% dialyzed FBS) | AUC of viability dose-response curve ([3]; RPMI 5 mM glucose + 10% FBS) | AUC of viability dose-response curve [3, 4]
25 | O=C1C(CCC(O)c2ccc(F)cc2)C(c2ccc(O)cc2)N1c1ccc(F)cc1 (configuration not stated) | 461 | 435 | 469 | 472 | 472 | 465 | 477 | 470 | 466
26 | NNC(=O)c1ccncc1 | 454 | 444 | 456 | 453 | 468 | 460 |  |  | 
27 | Cc1ccnc(N[S+](=O)([O-])c2ccc(NC(=O)Nc3ccc([S+](=O)([O-])Nc4nccc(C)n4)cc3)cc2)n1 |  |  |  | 274 | 279 | 270 | 236 | 180 | 210
28 | N[C@@H](Cc1ccc(N(CCCl)CCCl)cc1)C(=O)O | 400 | 422 | 415 | 410 | 374 | 387 | 377 | 355 | 362
29 | CCOC\1=C(/C(=O)NC2=CC=C(OC3=C(Cl)C(=NC=C3)N)C(=C2)F)C(=O)N(\C=C1)C4=CC=C(F)C=C4 | 415 | 446 | 440 | 444 | 447 | 431 | 328 | 309 | 300
30 | CC(=O)O[C@@]12CO[C@@H]1C[C@H](O)[C@]3(C)[C@@H]2[C@H](OC(=O)C4=CC=CC=C4)[C@]5(O)C[C@H](O)/C(=C(/[C@@H](O)C3=O)C5(C)C)C | 423 | 430 | 430 | 421 | 411 | 426 |  |  | 
31 | CC(=O)OCC(CCn1cnc2cnc(N)nc21)COC(C)=O | 454 | 464 | 462 | 470 | 470 | 465 | 445 | 434 | 440
32 | COC1=C(CC=C(C)C)C2=C(\C=C/C(=O)O2)C=C1 | 470 | 455 | 460 | 413 | 439 | 416 |  |  | 
33 | O=C(Nc1cccc2c(=O)cc(-c3nnn[nH]3)oc12)c1ccc(OCCCCc2ccccc2)cc1 | 433 | 384 | 404 | 424 | 416 | 389 | 378 | 371 | 392
34 | C=C1C(=O)O[C@@H]2[C@H]3O[C@]3(C)CC/C=C(\C)CC[C@@H]12 | 360 | 375 | 386 | 347 | 358 | 351 | 328 | 275 | 329
35 | O=C(O)C(=O)Nc1cccc(-c2nnn[nH]2)c1 | 463 | 457 | 452 | 455 | 477 | 470 | 422 | 451 | 462
36 | O=P1(NCCCl)OCCCN1CCCl (configuration not stated) |  |  |  | 424 | 402 | 391 |  |  | 
37 | N#C[C@@H]1C[C@@H]2C[C@@H]2N1C(=O)[C@@H](N)C12CC3CC(CC(O)(C3)C1)C2 | 400 | 466 | 450 | 462 | 433 | 451 | 465 | 426 | 455
38 | c1cc(N[C@@H]2CCNC2)nc(-c2cnc3ccc(-c4cn[nH]c4)cn23)c1 | 460 | 467 | 436 | 471 | 457 | 437 | 386 | 399 | 367
39 | N[S+](=O)([O-])c1cc2c(cc1Cl)NCN[S+]2(=O)[O-] | 468 | 477 | 470 | 466 | 468 | 474 | 450 | 442 | 412
40 | O=C(O)CCc1ccc(NCc2cccc(Oc3ccccc3)c2)cc1 | 446 | 441 | 444 | 464 | 449 | 471 | 406 | 439 | 413
41 | COc1cc([C@@H]2c3cc4c(cc3[C@H](O)[C@H]3COC(=O)[C@H]23)OCO4)cc(OC)c1OC | 170 | 126 | 138 | 69.5 | 70.5 | 75.2 |  |  | 
42 | O=C(O)c1nn(Cc2ccc(Cl)cc2Cl)c2ccccc12 |  |  |  | 423 | 412 | 379 | 387 | 400 | 375
43 | COC1=CC2=C(C=C1CC3=C(F)C(=CC=C3)Cl)C(=O)\C(=C/N2[C@H](CO)C(C)C)C(O)=O | 445 | 452 | 454 | 446 | 421 | 423 |  |  | 
44 | CN1\C(=C(O)/C2=C(C=C(Cl)S2)[S+]1([O-])=O)C(=O)NC3=NC=CC=C3 | 459 | 464 | 477 | 438 | 472 | 458 |  |  | 
45 | Cc1cccc(Nc2nc(N[C@@H]3CCCC[C@@H]3N)ncc2C(N)=O)c1 | 424 | 411 | 409 | 334 | 380 | 368 |  |  | 
46 | OCCN1CCN(CCCN2c3ccccc3Sc3ccc(C(F)(F)F)cc32)CC1 | 411 | 420 | 454 | 403 | 402 | 418 |  |  | 
47 | COc1cc2nc(N3CCN(C(=O)c4ccco4)CC3)nc(N)c2cc1OC | 411 | 384 | 392 |  |  |  | 332 | 383 | 377
48 | CON(C)C(=O)N1\N=C(/S[C@]1(CCCN)C2=CC=CC=C2)C3=CC(=CC=C3F)F |  |  |  |  |  |  | 130 | 103 | 105
